# Measured values taken from patent US20060287251A1, “Combination therapy for glycaemic control” (priority 2003, published 2006).
# Legend:
# [1] = target: T1, Prolidase from porcine kidney (Sus scrofa, UniProt A0A5G2QQV1); test: Cross reacting enzymes: prolidase; format: biochemical; conditions: substrate Ile-Pro-OH
# T1 construct: Prolidase from porcine kidney (ICN Biomedicals, Eschwege, Germany); purchased ICN Biomedicals, Eschwege, Germany; host or cells: porcine kidney
# T1 sequence (A0A5G2QQV1 1-463): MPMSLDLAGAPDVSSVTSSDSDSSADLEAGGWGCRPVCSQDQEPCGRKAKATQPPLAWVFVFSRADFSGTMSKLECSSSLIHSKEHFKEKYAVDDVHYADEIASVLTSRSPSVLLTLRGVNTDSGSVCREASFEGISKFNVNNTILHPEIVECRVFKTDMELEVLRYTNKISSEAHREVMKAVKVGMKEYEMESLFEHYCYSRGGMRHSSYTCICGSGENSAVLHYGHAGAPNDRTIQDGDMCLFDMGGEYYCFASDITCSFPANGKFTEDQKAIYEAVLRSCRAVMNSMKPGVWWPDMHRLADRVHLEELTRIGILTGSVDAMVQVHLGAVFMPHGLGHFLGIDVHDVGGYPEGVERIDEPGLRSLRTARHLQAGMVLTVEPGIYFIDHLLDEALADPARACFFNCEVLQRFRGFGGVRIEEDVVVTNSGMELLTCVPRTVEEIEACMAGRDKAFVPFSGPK
# Procedure: Glutaminyl pyrrolidine or glutaminyl thiazolidine were tested for their cross reacting potency against dipeptidyl peptidase I, prolyl oligopeptidase and prolidase.
# Prolidase (EC 3.4.13.9) was first described by Bergmann & Fruton (Bergmann, M. & Fruton, J. S., 1937, J Biol. Chem. 189-202). Prolidase releases the N-terminal amino acid from Xaa-Pro dipeptides and has a pH optimum between 6 and 9. Prolidase from porcine kidney (ICN Biomedicals, Eschwege, Germany). was solved (1 mg/mL) in assay buffer (20 mM NH4(CH3COO)2, 3 mM MnCl2, pH 7.6). In order to get a fully active enzyme the solution was incubated for 60 min at room temperature. 450 μL glutaminyl pyrrolidine or glutaminyl thiazolidine in an concentration range of 5*10^−3 M-5*10^−7 M were admixed with 500 μL buffer solution (20 mM NH4(CH3COO)2, pH 7.6) and 250 μL Ile-Pro-OH (0.5 mM in the assay mixture). The assay mixture was pre-incubated at 30° C. for 5 min After pre-incubation, 75 μL Prolidase (1:10 diluted in assay buffer) were added and measurement was performed at 30° C. and λ=220 nm for 20 min using a UV/Vis photometer, UVW (Thermo Spectronic, Cambridge, UK). The IC50-values were calculated using Graphit 4.0.15 (Erithacus Software, Ltd., UK).
# Plasma stability = format: in vitro ADME, human; conditions: 37 °C; for stability in human plasma: human plasma in vitro; for half-life of the inhibitory potency: human plasma, 5*10^−5, 2.5*10^−5, 1.25*10^−5 M
# Procedure: In order to investigate the stability of glutaminyl pyrrolidine or glutaminyl thiazolidine in human plasma, the activity of DPIV in plasma was determined at a defined time. The average DPIV activity in human plasma was determined as 43.69 U/mL. In the working solution, the plasma was diluted in 0.9% NaCl to fix the DPIV activity level at 25 U/mL. Plasma and glutaminyl pyrrolidine or glutaminyl thiazolidine in different concentrations (5*10^−5, 2.5*10^−5, 1.25*10^−5 M in plasma) were incubated at 37° C. At defined time points samples were taken using a pipette roboter (Gilson 215, Liquid handler, Gilson) and transferred in a microtiter plate containing 5*10^−5 M glycylprolylaminomethylcoumarine in 0.9% NaCl+015% Brij per well. After 6 min the reaction was stopped by addition of isoleucylthiazolidine (5*10^−5 M in 0.9% NaCl solution). Fluorescence measurement was performed against 0.9% NaCl in plasma (reference standard) using a plate reader (HTS7000 plus, Applied Biosystems, Weiterstadt, Germany). The half-life of the inhibitory potency of glutaminyl pyrrolidine or glutaminyl thiazolidine was calculated by plotting the enzyme activity versus reaction time.
# porcine DP II = target: T2, porcine DP II (Sus scrofa, UniProt A0A5G2QK18); test: Inhibition of DP IV-like enzymes: dipeptidyl peptidase II; format: biochemical; conditions: substrate lysylalanylaminomethylcoumarine, pH 7.6, 30 °C
# T2 construct: The enzyme used was purified from porcine kidney; from tissue; host or cells: porcine kidney
# T2 sequence (A0A5G2QK18 28-502): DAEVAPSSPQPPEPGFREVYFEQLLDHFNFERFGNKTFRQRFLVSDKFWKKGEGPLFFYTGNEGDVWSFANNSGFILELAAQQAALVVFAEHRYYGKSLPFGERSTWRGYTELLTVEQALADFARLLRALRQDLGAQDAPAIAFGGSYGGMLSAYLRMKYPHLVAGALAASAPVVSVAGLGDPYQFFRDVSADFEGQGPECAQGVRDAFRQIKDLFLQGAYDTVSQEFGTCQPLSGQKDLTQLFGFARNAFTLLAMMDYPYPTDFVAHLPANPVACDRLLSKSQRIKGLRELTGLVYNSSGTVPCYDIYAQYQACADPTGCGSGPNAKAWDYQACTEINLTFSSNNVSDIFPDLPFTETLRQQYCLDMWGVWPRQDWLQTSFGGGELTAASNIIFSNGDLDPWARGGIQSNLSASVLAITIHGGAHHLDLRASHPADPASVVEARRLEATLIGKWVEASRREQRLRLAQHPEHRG
# Procedure: DP II (3.4.14.2) releases N-terminal dipeptides from oligopeptides if the N-terminus is not protonated (McDonald, J. K., Ellis, S. & Reilly, T. J., 1966, J Biol. Chem., 241, 1494-1501). Pro and Ala in P1-position are preferred residues. The enzyme activity is described as DPIV-like activity, but DP II has an acidic pH-optimum. The enzyme used was purified from porcine kidney. 100 μL glutaminyl pyrrolidine or glutaminyl thiazolidine in an concentration range of 1*10^−4M-5*10^−8M were admixed with 100 μL buffer solution (40 mM HEPES, pH 7.6, 0.015% Brij, 1 mM DTT), 50 μL lysylalanylaminomethylcoumarine solution (5 mM) and 20 μl porcine DP II (250 fold diluted in buffer solution). Fluorescence measurement was performed at 30° C. and λexiatation=380 nm, λemission=465 nm for 25 min using a plate reader (HTS7000 plus, Applied Biosystems, Weiterstadt, Germany).
# [2] = target: T3, DPIV (N-terminal Xaa-Pro releasing activity) in human plasma (Homo sapiens, UniProt P27487); test: Ki-determination in human plasma; format: biochemical
# T3 construct: Human plasma contains N-terminal Xaa-Pro releasing activity; from tissue; host or cells: human plasma
# T3 sequence (P27487 39-766 limits assumed): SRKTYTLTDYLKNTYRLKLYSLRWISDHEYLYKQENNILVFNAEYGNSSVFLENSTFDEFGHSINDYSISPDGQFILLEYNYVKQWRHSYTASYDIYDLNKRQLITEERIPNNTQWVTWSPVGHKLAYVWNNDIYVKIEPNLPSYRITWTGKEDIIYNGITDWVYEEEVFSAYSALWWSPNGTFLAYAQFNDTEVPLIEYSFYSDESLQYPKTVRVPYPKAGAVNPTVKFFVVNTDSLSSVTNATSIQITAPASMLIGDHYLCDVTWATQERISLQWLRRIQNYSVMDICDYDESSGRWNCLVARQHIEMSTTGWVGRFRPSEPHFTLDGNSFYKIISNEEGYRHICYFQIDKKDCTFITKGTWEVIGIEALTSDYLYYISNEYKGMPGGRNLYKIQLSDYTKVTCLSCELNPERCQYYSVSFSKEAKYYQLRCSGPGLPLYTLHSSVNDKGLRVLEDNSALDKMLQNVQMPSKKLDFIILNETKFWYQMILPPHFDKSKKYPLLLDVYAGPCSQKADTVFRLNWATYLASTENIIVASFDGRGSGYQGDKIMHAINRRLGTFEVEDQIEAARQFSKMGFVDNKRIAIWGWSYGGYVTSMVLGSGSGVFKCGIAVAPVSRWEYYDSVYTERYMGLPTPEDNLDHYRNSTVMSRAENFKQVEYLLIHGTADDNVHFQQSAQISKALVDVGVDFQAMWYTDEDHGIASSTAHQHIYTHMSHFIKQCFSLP
# Procedure: Human plasma contains N-terminal Xaa-Pro releasing activity. 70 μL glutaminyl pyrrolidine or glutaminyl thiazolidine in an concentration range of 1*10^−5 M -1*10^−7 M (glutaminyl pyrrolidine) and 1*10^−6 M-1*10^−8 M (glutaminyl thiazolidine) respectively were admixed with 50 μL glycylprolyl-4-nitroaniline in different concentrations (0.4 mM, 0.2 mM, 0.1 mM, 0,05 mM) and 100 μl HEPES (40 mM, pH7.6). The assay mixture was pre-incubated at 30 ° C. for 5 min and 22 hours respectively. After pre-incubation, 50 μL human plasma were added and measurement of yellow color development due to 4-nitroaniline release was performed at 30° C. and λ=405 nm for 10 min using a plate reader ([HTS7000 plus, Applied Biosystems, Weiterstadt, Germany). The Ki-values were calculated using Graphit 4.0.15 (Erithacus Software, Ltd, UK) based on a competitive inhibition of DPIV by glutaminyl pyrrolidine or glutaminyl thiazolidine.
SMILES,IC50 [1] [µM],stability in human plasma (Plasma stability),half-life of the inhibitory potency (Plasma stability),Ki (porcine DP II) [µM],Ki ([2]; after 5 min pre-incubation) [µM],Ki ([2]; after 22 hours pre-incubation) [µM]
NC(=O)CC[C@H](N)C(=O)N1CCSC1 [glutaminyl thiazolidine],> 3000,stable in human plasma over 22 hours,no half-time could be determined,10.7,0.403,0.513
NC(=O)CC[C@H](N)C(=O)N1CCCC1 [glutaminyl pyrrolidine],340,stable in human plasma over 22 hours,no half-time could be determined,85.2,1.3,1.36
